What was measured:
tomato hornworm larvae = experiment: Prevention of cuticular blackening in tomato hornworm larvae injected with juvenile hormone esterase; format: in vivo, Manduca sexta; details: third stadium larvae injected with 9 μg (148 pmoles) juvenile hormone esterase, then 0.17 nmoles epofenonane
Description: Tomato hornworm larvae, obtained from Zoecon Corp., were injected with the affinity purified juvenile hormone esterase obtained from Example I. Injections were performed at 10 hours after lights on the day before ecdysis to the third stadium. Larvae were reared on a 14L"10D photoperiod. Injections were made in 1.5 μl of buffer cocktail containing 3-10 μg (49-164 pmoles) of esterase. Total protein in each injection was kept constant at 10 μg with […] bovine serum albumen (BSA). Control injections in buffer contained 10 μg BSA or 12 μg larval blood protein from which the esterase was removed.
FIG. 2 illustrates third stadium tomato hornworm larvae after injection with 9 μg (148 pmoles) of juvenile hormone esterase as in FIG. 1, but then treated with 17 nmoles epofenonane (left), 0.17 nmoles epofenonane (middle) or no epofenonane (right). […] Epofenonane is a juvenile hormone chemical mimic, although it is not a substrate for juvenile hormone esterase. Thus, FIG. 2 illustrates that even a dose of juvenile hormone which is too low completely to prevent an anti-juvenile hormone effect can still effect a localized response.

[1] = molecular target: T1, juvenile hormone hemolymph carrier protein (H. virescens) (Heliothis virescens, UniProt Q25175); experiment: Binding of juvenile hormone by the hemolymph carrier protein; details: juvenile hormone bound by carrier protein
T1 construct: preparation not described in the excerpts
T1 sequence (Q25175 19-242): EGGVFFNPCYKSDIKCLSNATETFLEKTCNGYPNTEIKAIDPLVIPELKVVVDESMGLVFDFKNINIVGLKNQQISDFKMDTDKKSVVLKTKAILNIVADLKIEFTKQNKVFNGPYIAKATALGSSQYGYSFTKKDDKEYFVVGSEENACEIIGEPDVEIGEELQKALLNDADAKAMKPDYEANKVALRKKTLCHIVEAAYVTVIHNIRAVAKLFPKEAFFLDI
Description: (§1) Juvenile hormone esterase is biochemically interesting in that it is an extraordinarily efficient enzyme. The very low Km ^31 6×10^-8 M of juvenile hormone esterase, its high kcat, and the low molarity of the enzyme even in the last larval stadium indicate that production of even small amounts of juvenile hormone esterase (<0.1% of total protein) should overpower the ability of the corpora allata to make juvenile hormone. This destruction of the juvenile hormone will be […] by the juvenile hormone hemolymph carrier protein.

[2] = molecular target: T2, juvenile hormone esterase (Heliothis virescens, UniProt P12992); experiment: Juvenile hormone esterase kinetics for juvenile hormone; format: biochemical; details: substrate juvenile hormone
T2 sequence (P12992 20-564): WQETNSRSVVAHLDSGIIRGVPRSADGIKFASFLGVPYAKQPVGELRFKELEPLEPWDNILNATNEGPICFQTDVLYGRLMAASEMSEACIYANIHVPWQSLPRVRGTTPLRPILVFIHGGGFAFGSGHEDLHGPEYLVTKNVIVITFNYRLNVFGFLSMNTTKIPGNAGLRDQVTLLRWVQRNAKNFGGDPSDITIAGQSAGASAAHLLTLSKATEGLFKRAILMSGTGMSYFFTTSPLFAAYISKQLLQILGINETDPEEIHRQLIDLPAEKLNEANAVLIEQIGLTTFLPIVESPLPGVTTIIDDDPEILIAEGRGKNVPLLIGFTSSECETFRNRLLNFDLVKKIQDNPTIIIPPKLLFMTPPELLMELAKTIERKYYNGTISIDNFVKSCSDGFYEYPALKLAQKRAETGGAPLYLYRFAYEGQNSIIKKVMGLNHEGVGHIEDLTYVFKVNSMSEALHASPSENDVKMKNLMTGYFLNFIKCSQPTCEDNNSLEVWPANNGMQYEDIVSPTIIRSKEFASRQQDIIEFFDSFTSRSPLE
Description: as §1

Row | Molecule | prevention of blackening of the cuticle (tomato hornworm larvae) | Kd [1] | Km [2]
1 | CCc1ccc(OCCC(CC)CCC2OC2(C)CC)cc1 (stereo not drawn) [epofenonane] | not sufficient to prevent completely the blackening of the cuticle | – | –
2 | juvenile hormone | – | 610 nM | 0.06 µM
